# Test results taken from patent US20070036717A1, “Chemoradiotherapy with TS-1/camptothecins” (The Kitasato Gakuen Foundation, priority 2005, published 2007).
# Counter-ions that a name gives are not always drawn.
# Assay: Adverse reactions (NCI-CTC Version 2.0), maximum tolerated and recommended dose of CPT-11
# Assay type: in vivo, human patients
# Conditions: with TS-1 80 mg/m^2/day and radiation 45 Gy
# Experimental: A Phase I/II clinical study of preoperative chemoradiotherapy with TS-1/CPT-11 was conducted to estimate the maximum tolerated dose (MTD) and recommended dose (RD) of CPT-11. The subjects had cancer of the rectum (excluding the rectosigmoid (Rs)) with a preoperative diagnosis of T3′ (tumors showing invasion through the muscularis propria into the subserosa, or into the nonperitonealized pericolic or perirectal tissues) or T4′ (tumors perforating the visceral peritoneum and/or directly invading other organs or structures), and N0 to N3′. Response rates and safety (percentage of adverse reactions and percentage of complications) were also evaluated with RD administration. (2) Subject selection
# Level 1 (CPT-11, 40 mg/m^2) was the starting dose, and dose was titrated until the maximum tolerated dose could be estimated. […]
# After the level of the maximum tolerated dose was confirmed, the recommended dose was determined by reducing the 10 mg/m^2 (one level) increments.
# Maximum tolerated dose was determined on the basis of the adverse reactions observed during the first week after completing chemotherapy. (Maximum tolerated dose was evaluated in the modality of coadministration with radiation.)
# Side effects were evaluated according to the National Cancer Institute Common Toxicity Criteria (Version 2.0; NCI-CTC). Effects not on the NCI-CTC form were scored on the following five-grade scale.
smiles,measurement,value
"CCc1c2c(nc3ccc(OC(=O)N4CCC(N5CCCCC5)CC4)cc13)-c1cc3c(c(=O)n1C2)COC(=O)[C@]3(O)CC [CPT-11, (4S)-4a, 11-diethyl-4β-hydroxy-9-[[4-(piperidin-1-yl)piperidin-1-yl]carbonyloxy]1H-pyrano[3′,4′:6,7]indolizino[1,2-b]quinoline-3,14-(4H,12H)dione hydrochloride salt]",final recommended dose of CPT-11,80 mg/m^2
